According to patent US20070155757A1, “Use of pyrimidine compounds in the preparation of parasiticides” (priority 2004, published 2007):

Compound	melting point [°C]
Nc1c(Oc2cccc(F)c2)ncnc1Oc1cccc(F)c1 [Compound 1.4, 4,6-bis-(3-fluorophenoxy)-pyrimidin-5-ylamine]	110 to 112
Cc1cc(Oc2ncnc(Oc3ccc(F)c(C)c3)c2N)ccc1F [Compound 1.20, 4,6-bis-(4-fluoro-3-methylphenoxy)-pyrimidin-5-ylamine]	155 to 156
NC(=O)Cc1c(Oc2ccc(F)c(C(F)(F)F)c2)ncnc1Oc1ccc(F)c(C(F)(F)F)c1 [Compound 1.29, [4,6-bis-(4-fluoro-3-(trifluoromethyl)phenoxy)]-pyrimidin-5-yl-acetamide]	122 to 124
